Assay results published in ChEMBL document CHEMBL1201862, “PubChem BioAssay data set” (2004).
Calls of active or inactive are those of the source.

What was measured:
Cytochrome P450 1A2 = target: T1, Cytochrome P450 1A2 (Homo sapiens, UniProt P05177);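 also: PubChem cytochrome P450 panel assay, CYP1A2 panel member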
T1 sequence (P05177 whole entry): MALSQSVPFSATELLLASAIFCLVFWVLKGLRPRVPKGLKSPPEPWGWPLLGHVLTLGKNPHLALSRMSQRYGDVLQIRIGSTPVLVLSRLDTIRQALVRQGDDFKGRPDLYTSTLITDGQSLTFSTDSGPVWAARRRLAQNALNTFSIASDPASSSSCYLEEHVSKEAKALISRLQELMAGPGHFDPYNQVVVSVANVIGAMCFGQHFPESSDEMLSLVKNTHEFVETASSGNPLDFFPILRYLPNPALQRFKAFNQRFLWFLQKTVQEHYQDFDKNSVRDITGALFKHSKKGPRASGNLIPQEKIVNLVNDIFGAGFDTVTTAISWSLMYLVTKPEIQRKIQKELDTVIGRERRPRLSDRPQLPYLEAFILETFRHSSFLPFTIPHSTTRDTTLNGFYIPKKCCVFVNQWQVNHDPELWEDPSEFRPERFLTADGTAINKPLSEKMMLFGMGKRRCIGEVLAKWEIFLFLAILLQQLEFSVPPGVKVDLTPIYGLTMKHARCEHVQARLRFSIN

Cytochrome P450 3A4 = Cytochrome P450 3A4 (Homo sapiens, UniProt P08684);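 also: CYP3A4 tested as one member of a cytochrome P450 panel screen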
Cytochrome P450 2C19 = Cytochrome P450 2C19 (Homo sapiens, UniProt P33261); experiment: Cytochrome panel assay with activity outcomes. Panel member name: p450-cyp2c19 Compounds with AC50 equal or less than 10 uM are considered active; format: functional; details: read-out: AC50
cells = format: functional
[1] = target: T2, RNA-binding protein pos-1 (Caenorhabditis elegans, UniProt G5EF15); experiment: inhibitors of POS-1/mex-3 RNA binding, dose response, biochemical, fluorescence polarization (AID 1964);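 also: purified POS-1 fused to maltose binding protein made in E. coli; potency of compounds blocking POS-1 binding to fluorescent RNA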
T2 sequence (G5EF15 whole entry): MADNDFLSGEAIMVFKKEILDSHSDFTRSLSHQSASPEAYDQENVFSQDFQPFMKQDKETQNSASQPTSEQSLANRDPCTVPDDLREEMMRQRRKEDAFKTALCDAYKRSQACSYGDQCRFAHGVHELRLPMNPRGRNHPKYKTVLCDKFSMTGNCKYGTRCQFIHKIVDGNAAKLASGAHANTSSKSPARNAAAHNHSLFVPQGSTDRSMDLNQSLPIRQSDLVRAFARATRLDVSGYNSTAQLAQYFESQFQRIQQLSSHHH

[2] = target: T3, Zinc finger protein mex-5 (Caenorhabditis elegans, UniProt Q9XUB2); experiment: MEX-5/TCR-2 RNA interaction inhibitors, dose response, biochemical, C. elegans, fluorescence polarization (AID 1960)
T3 sequence (Q9XUB2 whole entry): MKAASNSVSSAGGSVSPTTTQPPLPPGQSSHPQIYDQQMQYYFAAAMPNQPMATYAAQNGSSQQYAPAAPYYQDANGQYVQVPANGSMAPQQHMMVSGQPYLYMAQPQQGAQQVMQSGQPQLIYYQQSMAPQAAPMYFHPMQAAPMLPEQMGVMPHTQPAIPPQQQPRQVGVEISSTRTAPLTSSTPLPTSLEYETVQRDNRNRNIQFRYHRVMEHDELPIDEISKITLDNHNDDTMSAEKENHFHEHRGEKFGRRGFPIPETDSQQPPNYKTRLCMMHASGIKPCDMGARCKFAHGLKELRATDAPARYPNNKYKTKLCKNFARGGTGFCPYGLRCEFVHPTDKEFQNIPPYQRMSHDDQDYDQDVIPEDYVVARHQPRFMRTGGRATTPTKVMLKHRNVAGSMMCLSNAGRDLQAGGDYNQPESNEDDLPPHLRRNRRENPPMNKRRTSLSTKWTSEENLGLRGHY

Cytochrome P450 2D6 = Cytochrome P450 2D6 (Homo sapiens, UniProt P10635);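 also: CYP2D6 member of a cytochrome P450 panel assay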
Cytochrome P450 2C9 = Cytochrome P450 2C9 (Homo sapiens, UniProt P11712)
[3] = target: T4, Heat shock factor protein 1 (Mus musculus, UniProt P38532); experiment: HSF1 potentiators in luciferase reporter cells, confirmation, cell-based, NIH3T3, luminescence, dose retest (AID 435004); format: functional;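 also: stress induced by proteasome inhibitor MG132 added 30 min after compound; luciferase reporter driven by HSF1 response element in NIH3T3 cells; actives raise luminescence as potentiators of the MG132 stress response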
T4 sequence (P38532 whole entry): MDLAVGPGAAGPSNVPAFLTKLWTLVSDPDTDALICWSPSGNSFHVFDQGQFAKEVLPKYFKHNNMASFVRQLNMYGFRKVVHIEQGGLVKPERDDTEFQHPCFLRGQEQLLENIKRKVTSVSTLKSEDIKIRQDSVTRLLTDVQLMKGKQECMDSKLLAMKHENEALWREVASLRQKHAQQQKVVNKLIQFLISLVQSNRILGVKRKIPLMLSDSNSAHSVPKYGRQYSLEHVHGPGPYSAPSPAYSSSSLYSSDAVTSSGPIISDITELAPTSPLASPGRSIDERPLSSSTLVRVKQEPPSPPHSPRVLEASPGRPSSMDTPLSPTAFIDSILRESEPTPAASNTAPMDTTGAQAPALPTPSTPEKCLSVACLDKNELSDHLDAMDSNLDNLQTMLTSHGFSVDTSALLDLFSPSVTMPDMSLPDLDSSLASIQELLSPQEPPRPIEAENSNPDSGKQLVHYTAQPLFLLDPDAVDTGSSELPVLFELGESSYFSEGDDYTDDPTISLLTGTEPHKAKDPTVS

[4] = Luminescence Cell-Based Dose Retest to Confirm Inhibitors of Cancer Stem Cells. [Related pubchem assays (depositor defined):AID2717, AID2721]; format: functional; details: Homo sapiens

Chain of Cytochrome P450 3A4 (P08684 whole entry): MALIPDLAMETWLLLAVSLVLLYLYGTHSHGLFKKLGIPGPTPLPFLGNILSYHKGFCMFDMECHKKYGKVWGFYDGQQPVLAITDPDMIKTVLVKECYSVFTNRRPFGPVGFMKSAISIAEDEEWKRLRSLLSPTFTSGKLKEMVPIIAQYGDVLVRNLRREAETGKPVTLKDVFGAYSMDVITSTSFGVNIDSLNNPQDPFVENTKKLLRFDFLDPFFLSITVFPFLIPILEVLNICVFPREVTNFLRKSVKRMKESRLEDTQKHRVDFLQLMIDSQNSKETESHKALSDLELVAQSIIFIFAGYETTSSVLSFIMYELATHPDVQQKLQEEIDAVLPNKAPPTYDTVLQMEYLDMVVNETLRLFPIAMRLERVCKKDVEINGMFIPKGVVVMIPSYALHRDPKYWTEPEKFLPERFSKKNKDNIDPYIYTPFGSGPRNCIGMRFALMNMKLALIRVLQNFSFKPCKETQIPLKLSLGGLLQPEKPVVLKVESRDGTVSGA
Chain of Cytochrome P450 2C19 (P33261 whole entry): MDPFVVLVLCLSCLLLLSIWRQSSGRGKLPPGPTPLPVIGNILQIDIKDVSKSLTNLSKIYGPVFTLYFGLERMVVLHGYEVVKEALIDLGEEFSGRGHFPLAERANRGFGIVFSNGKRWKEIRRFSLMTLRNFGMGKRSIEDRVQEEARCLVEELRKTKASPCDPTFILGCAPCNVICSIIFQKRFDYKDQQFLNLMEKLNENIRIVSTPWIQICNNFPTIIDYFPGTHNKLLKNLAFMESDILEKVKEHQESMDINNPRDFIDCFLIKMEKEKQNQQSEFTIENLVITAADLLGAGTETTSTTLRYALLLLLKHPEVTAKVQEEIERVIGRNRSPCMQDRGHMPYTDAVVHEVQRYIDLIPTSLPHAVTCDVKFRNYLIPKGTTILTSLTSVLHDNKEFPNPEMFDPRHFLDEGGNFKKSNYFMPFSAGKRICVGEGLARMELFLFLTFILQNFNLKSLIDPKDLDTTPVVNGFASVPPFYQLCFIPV
Chain of Cytochrome P450 2D6 (P10635 whole entry): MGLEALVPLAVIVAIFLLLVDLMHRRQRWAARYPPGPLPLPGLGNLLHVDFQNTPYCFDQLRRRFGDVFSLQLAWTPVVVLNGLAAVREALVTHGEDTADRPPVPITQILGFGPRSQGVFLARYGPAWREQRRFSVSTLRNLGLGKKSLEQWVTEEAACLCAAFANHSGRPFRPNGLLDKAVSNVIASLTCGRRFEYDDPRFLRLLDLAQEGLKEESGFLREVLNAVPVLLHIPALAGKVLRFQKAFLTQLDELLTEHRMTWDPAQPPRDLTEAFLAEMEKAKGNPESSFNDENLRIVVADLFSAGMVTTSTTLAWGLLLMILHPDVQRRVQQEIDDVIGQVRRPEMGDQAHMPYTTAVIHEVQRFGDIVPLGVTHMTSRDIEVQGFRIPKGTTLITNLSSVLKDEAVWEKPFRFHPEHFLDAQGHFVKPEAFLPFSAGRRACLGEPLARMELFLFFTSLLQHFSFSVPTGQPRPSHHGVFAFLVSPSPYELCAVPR
Chain of Cytochrome P450 2C9 (P11712 whole entry): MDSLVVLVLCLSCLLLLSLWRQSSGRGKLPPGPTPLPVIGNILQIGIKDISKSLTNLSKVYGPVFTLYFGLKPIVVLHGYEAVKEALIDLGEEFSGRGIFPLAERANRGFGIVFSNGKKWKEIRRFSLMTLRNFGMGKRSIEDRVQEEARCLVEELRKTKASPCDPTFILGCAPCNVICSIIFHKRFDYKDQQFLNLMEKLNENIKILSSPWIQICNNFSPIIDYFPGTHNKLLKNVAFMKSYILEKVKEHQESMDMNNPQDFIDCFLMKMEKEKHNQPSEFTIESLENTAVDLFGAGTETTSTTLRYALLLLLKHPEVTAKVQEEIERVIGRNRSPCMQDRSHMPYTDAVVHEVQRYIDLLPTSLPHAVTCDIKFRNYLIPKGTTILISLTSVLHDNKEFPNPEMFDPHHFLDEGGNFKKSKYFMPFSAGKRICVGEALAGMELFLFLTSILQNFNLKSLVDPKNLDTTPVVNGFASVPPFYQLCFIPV

CCCCC/N=c1\ccn(Cc2ccccc2)c2ccccc12 [CP-339818]
AC50 (Cytochrome P450 1A2): 25.1 µM (inconclusive)
AC50 (Cytochrome P450 3A4): 15.8 µM (inconclusive)

Cc1cccc(CN2CCN([C@@H](c3ccccc3)c3ccc(Cl)cc3)CC2)c1
AC50 (Cytochrome P450 2C19): 2.51 µM (inconclusive)
AC50 (Cytochrome P450 1A2): 10 µM (inconclusive)

CN1CCN(c2c(F)cc3c(=O)c(C(=O)O)cn4c3c2SCC4)CC1
IC50 (cells): 8.05 µM (active)

Cc1ccnc(NC(=O)COc2ccc3c(c2)CCC3)c1
IC50 (cells): 24.5 µM (active)

O=C(NCc1ccccn1)C1Nc2ccc(C(F)(F)F)cc2C2C=CCC12 (stereo not drawn)
EC50 [1]: > 300 µM (not active)
EC50 [2]: > 300 µM (not active)

C[C@@H](Cc1ccc(Cl)cc1Cl)NO
AC50 (Cytochrome P450 1A2): 0.251 µM (active)

COc1ccccc1NC(=O)C1=C(C)Nc2nnnn2C1c1cccc(Br)c1 (stereo not drawn)
AC50 (Cytochrome P450 2D6): 15.8 µM (inconclusive)
AC50 (Cytochrome P450 1A2): 31.6 µM (inconclusive)

O=C(NCCN1CCOCC1)c1cccn2c(=O)c3c4c(sc3nc12)CCCC4
EC50 [1]: > 300 µM (not active)
EC50 [2]: > 300 µM (not active)

Cc1cccc2cc(CN(Cc3ccccc3)C(=O)c3cccc(F)c3)c(Cl)nc12
AC50 (Cytochrome P450 2D6): 15.8 µM (inconclusive)
AC50 (Cytochrome P450 1A2): 11.2 µM (inconclusive)

Cc1ccccc1OCCNC=C1C(=O)N(C)C(=O)N(C)C1=O
AC50 (Cytochrome P450 3A4): 20 µM (inconclusive)
AC50 (Cytochrome P450 2C9): 0.0126 µM (inconclusive)

COc1cc2nc(NC(=O)c3ccc(Cl)cc3)sc(=O)c2cc1OC
EC50 [3]: > 260 µM (inactive)

CCOC(=O)n1c(=O)n(Cc2ccccc2Cl)c2ccccc21
AC50 (Cytochrome P450 2D6): 28.2 µM (inconclusive)
AC50 (Cytochrome P450 3A4): 15.8 µM (inconclusive)

CC(C)CCNC1c2ccccc2C(=O)N1Cc1ccccc1 (stereo not drawn)
EC50 [3]: > 260 µM (inactive)

CCOc1ccc(C(=O)NC2CC3CCCC(C2)N3CC(C)C)cc1 (stereo not drawn)
EC50 [3]: > 260 µM (inactive)

CCNc1ncc2nc(-c3cccs3)c(=O)n(Cc3cccc(OC)c3)c2n1
AC50 (Cytochrome P450 1A2): 0.126 µM (inconclusive)
AC50 (Cytochrome P450 3A4): 12.6 µM (inconclusive)

CC1CCCN(c2ccc(C(=O)N3CCC4(CC3)OCCO4)cc2[N+](=O)[O-])C1 (stereo not drawn)
AC50 [4]: 4.55 µM (active)

CCOC(=O)COc1cc(O)c2c(=O)cc(-c3ccccc3)oc2c1
IC50 (cells): 0.86 µM (active)

CCOC(=O)CSCC(NC(=O)OC(C)(C)C)C(=O)OCC (stereo not drawn)
AC50 (Cytochrome P450 1A2): 25.1 µM (inconclusive)
AC50 (Cytochrome P450 2C9): 14.1 µM (inconclusive)

COc1ccc(CCNc2cc(C)nc3c(-c4ccc(Cl)cc4)c(C)nn23)cc1OC
AC50 [4]: 2.88 µM (active)

Cc1cc(C(=O)N2CCN(c3ccccn3)CC2)c(C)o1
EC50 [3]: > 260 µM (inactive)

CCOC(=O)CC1C(=O)NCCN1S(=O)(=O)c1ccccc1Cl (stereo not drawn)
AC50 (Cytochrome P450 2C19): 11.2 µM (inconclusive)
AC50 (Cytochrome P450 2D6): 0.891 µM (inconclusive)
AC50 (Cytochrome P450 3A4): 14.1 µM (inconclusive)
AC50 (Cytochrome P450 2C9): 0.00562 µM (inconclusive)

CN(C)CCOc1ccc(C(C)(C)c2ccccc2)cc1
AC50 [4]: 1.96 µM (active)

COc1ccc(C2C(C#N)=C(N)OC3=C2C(=O)CC(C)(C)C3)cc1Cn1cc([N+](=O)[O-])cn1 (stereo not drawn)
EC50 [1]: > 300 µM (not active)
EC50 [2]: > 300 µM (not active)

CCN(CC)CCN/C=C1/C(=O)NC(=O)N(Cc2ccccc2)C1=O
EC50 [1]: > 300 µM (not active)
EC50 [2]: > 300 µM (not active)

O=C(Nc1cccc([N+](=O)[O-])c1)c1ccc(CSc2ccccc2)cc1
AC50 (Cytochrome P450 2C19): 14.1 µM (inconclusive)
AC50 (Cytochrome P450 3A4): 20 µM (inconclusive)
AC50 (Cytochrome P450 2C9): 0.562 µM (inconclusive)

CCN1CCN(c2cc(C(C)(C)C)nc3c(-c4ccccc4)c(C)nn23)CC1
AC50 [4]: 5.68 µM (active)

CC1=CC(C)(C)N(C)C(=O)N1c1ccc(Cl)cc1
AC50 (Cytochrome P450 1A2): 17.8 µM (inconclusive)
AC50 (Cytochrome P450 2C9): 31.6 µM (inconclusive)

O=C(CCCC1=NS(=O)(=O)c2ccccc2N1)N1CCC2(CC1)OCCO2
AC50 (Cytochrome P450 2C19): 17.8 µM (inconclusive)
AC50 (Cytochrome P450 3A4): 35.5 µM (inconclusive)
AC50 (Cytochrome P450 2C9): 25.1 µM (inconclusive)

CC#C[C@]1(O)CC[C@H]2[C@@H]3CCC4=CC(=O)CCC4=C3[C@H](c3ccc(N(C)C)cc3)C[C@@]21C
AC50 (Cytochrome P450 1A2): 25.1 µM (inconclusive)

O=C(c1cn(CC(=O)N2CCCCC2)c2ccccc12)C1CC1
EC50 [3]: > 260 µM (inactive)

O=C(O)c1ccccc1C(=O)NNc1ccc(Cl)cc1
AC50 [4]: 0.983 µM (active)
AC50 (Cytochrome P450 2C19): 5.01 µM (inconclusive)
AC50 (Cytochrome P450 1A2): 6.31 µM (inconclusive)

COc1ccc(CNc2ccnc(-c3ccccc3CN(C)C)n2)c(OC)c1
AC50 (Cytochrome P450 1A2): 15.8 µM (inconclusive)

Cc1ccc(C(=O)Cn2nnc3c(sc4nc5c(c(-c6ccccc6)c43)CCC5)c2=O)cc1
AC50 [4]: 0.462 µM (active)
AC50 (Cytochrome P450 2C19): 25.1 µM (inconclusive)

CN1CCN(c2ccc([N+](=O)[O-])c(NCc3ccco3)c2)CC1
AC50 [4]: 0.512 µM (active)

O=C(Oc1cccc2cccnc12)c1cccc([N+](=O)[O-])c1
IC50 (cells): 10.9 µM (active)

CCS(=O)(=O)c1ccc(O)c(NC(=O)Nc2ccccc2)c1
AC50 (Cytochrome P450 2C19): 39.8 µM (inconclusive)
AC50 (Cytochrome P450 1A2): 20 µM (inconclusive)
AC50 (Cytochrome P450 2C9): 7.08 µM (inconclusive)

CCCc1cc(-c2nc(-c3ccc(C)cc3)cs2)ccn1
AC50 [4]: 3.62 µM (active)

O=c1[nH][nH]c2cc(=O)n(-c3ccc(Cl)cc3)nc12
EC50 [1]: 15.4 µM (active)
EC50 [2]: 4.09 µM (active)

Cc1ccc2cc3c(nc2c1)OCC3
IC50 (cells): > 50 µM (active)

COC(=O)CN(C#N)c1nc(SC)nc(N(C)C)n1
IC50 (cells): 18.9 µM (active)

COc1ccc(-c2sc3ccccc3c2/C=C/c2ccc(N)cc2)cc1
AC50 [4]: 3.98 µM (active)

CC(C)c1cccc(C(C)C)c1OC(=O)[C@H]1OC(c2ccc(Br)cc2)=C[C@@H]1c1ccc(Br)cc1
AC50 [4]: 3.58 µM (active)

COc1ccc(C2C(C#N)=C(N)OC3=C2C(=O)CC(C)(C)C3)cc1Cn1nc(C)c([N+](=O)[O-])c1C (stereo not drawn)
EC50 [1]: > 300 µM (not active)
EC50 [2]: > 300 µM (not active)

O=C(COC(=O)c1cc(Cl)ccc1O)c1ccc2c(c1)OCO2
IC50 (cells): 12.1 µM (active)

CN(C)c1ncnc2ccc(-c3ccccc3C(F)(F)F)cc12
AC50 (Cytochrome P450 2D6): 15.8 µM (inconclusive)
AC50 (Cytochrome P450 3A4): 10 µM (inconclusive)

CCCCCCSc1cccc(-c2nc3ccc(Cl)cn3c2NCc2ccccc2)c1
AC50 [4]: 1.55 µM (active)

CS(=O)(=O)N1CCC[C@@]2(CCN(Cc3nccs3)C2)C1
AC50 (Cytochrome P450 2C19): 39.8 µM (inconclusive)
AC50 (Cytochrome P450 2D6): 39.8 µM (inconclusive)
AC50 (Cytochrome P450 3A4): 12.6 µM (inconclusive)

CN(C)CCNc1nc2sc3c(c2c(=O)n1-c1ccccc1)CCCCC3
AC50 [4]: 4.27 µM (active)

Cc1c(NC(=O)/C=C/c2cn(-c3ccccc3)nc2-c2ccc(F)cc2)c(=O)n(-c2ccccc2)n1C
AC50 (Cytochrome P450 1A2): 28.2 µM (inconclusive)
AC50 (Cytochrome P450 3A4): 25.1 µM (inconclusive)
AC50 (Cytochrome P450 2C9): 20 µM (inconclusive)

CC(=O)Nc1ccc(/C=C/C(=O)c2ccc3c(c2)OCCO3)cc1
EC50 [1]: > 300 µM (not active)
EC50 [2]: > 300 µM (not active)
